# In PMC6290777, “Inhalation of the prodrug PI3K inhibitor CL27c improves lung function in asthma and fibrosis” (Nature Communications, 2018):
# Legend:
# [1] = tested on: human lung fibroblasts (HLF); assay: Cell survival of human lung fibroblasts (CellTiter-Glo); type: cell-based; conditions: TGF-β 10 ng/ml, 48 hours; CL27c 1 and 10 µM
# Experimental: Human lung fibroblast cell culture
# Two separate human lung fibroblast cell lines isolated from IPF patients were used: LL97a derived from a person (ATCC, Manassas, USA) and DHLF-IPF (#CC-7231, Lonza, Switzerland). Control cell lines were CCD-16Lu, obtained from a person that died of astrocytoma –a disease unrelated to IPF - (ATCC) and NHLF (#CC-2512; Lonza). LL97a and CCD-16Lu cells were cultured in Dulbecco's modified Eagles medium (DMEM, Sigma Aldrich, Dorset, UK). Media was supplemented with penicillin/streptomycin (100 U/ml, Thermo-Fischer, Germany) and 10% fetal bovine serum (FBS, Thermo-Fischer, Germany). Cells from Lonza were cultured in the FGMTM (#CC-3132, Lonza). […]
# Caliper based assay, the reaction was terminated by addition of EDTA buffer. Substrate and product were separated and quantified electrophoretically using the microfluidic-based and the assay plate was read on Caliper LabChip 3000 Drug Discovery System from Caliper Life Sciences (Walthan, MA, USA). ADP Glo was another method of detection used for some kinase assays where data was obtained by quantifying the intensity of luminescence. For ADP Glo based assay, the reaction was terminated by applying the Promega ADP Glo Kinase Assay kit and the assay plate was read on a LJL Biosystems Analyst HT. […]
# [2] = Microsomial stability, human; type: in vitro ADME; conditions: human liver microsomes, NADPH
# Experimental: To define whether this prodrug was suitable for inhaled administration, CL27c was studied to evaluate selected ADME (absorption, distribution, metabolism, and excretion) and pharmacokinetic properties. First, stability of CL27c and CL27e was analyzed in mouse plasma (Supplementary Table 1) and in mouse, rat, and human liver microsomes in the presence of nicotinamide adenine dinucleotide phosphate (NADPH; Supplementary Table 2). Next, clearance of CL27c was analyzed in C57BL/6J mice after either intra-venous or oral administration. […] Clearance of CL27c and CL27e after oral administration could not be determined due to their low bioavailability (Supplementary Table 3). Next, pharmacokinetics after inhalation was studied in C57BL/6J mice after delivering an aerosolized micro-suspension of CL27c. As shown in Table 1 and Supplementary Fig. 1b, CL27c dose-dependently reached the lungs and its metabolite CL27e was detectable after inhalation of the highest dose. […] Therefore, the inhaled prodrug promotes local effects but prevents systemic absorption of pharmacologically relevant amounts of the active compound. […]
# All tests for the microsomial stability of CL27c were conducted by the Istituto di Ricerche Biomediche (RBM) SpA – Merck Serono, Ivrea, Italy. […]
# Then, cells […]
# pretreated with different doses of CL27c were incubated at 37°C and 5% CO 2 for 10 minutes. […]
compound,measurement,setting,value
COC(=O)c1cccc(Cn2cc(-c3cccc4c(=O)cc(N5CCOCC5)[nH]c34)nn2)c1 [CL27c],survival of HLF lines,[1],reduced survival at 1 and 10 µM
same,Clint (intrinsic clearance),[2],0.1 ± 0.03 ml/min/mg prot
same,t1/2,[2],10.2 ± 2.2 min
